Results taken from publication PMC5441580, “GPR40 partial agonist MK-2305 lower fasting glucose in the Goto Kakizaki rat via suppression of endogenous glucose production” (PLoS ONE, 2017).
Where “and” joins values, the source holds several entries; their conditions need not be identical. Equal values may be shown once.

Experiments:
[1] = tested on: GPR40 receptor; conditions: cited from earlier work
[2] = tested on: GK rats; experiment: endogenous glucose production in vivo, 2H/13C dual tracer, acute treatment, GK rats; parameters: species or system rat
Procedure: To evaluate whether MK-2305 treatment produced an effect on EGP in vivo, a ^2H/^13C dual tracer approach was used to calculate EGP and its contributing sources. On the day of the study, GK rats were bled via tail snip, and blood glucose was measured via glucometer. Ambient glucose was measured at 8 A.M. and used to sort animals into treatment groups (n = 8 per group). 0.9% NaCl salinated D2O (Sigma-Aldrich, St. Louis, MO) was administered to all animals via IP injection at dose volume of 20 ml/kg. Animals were then placed in clean cages and food was removed. After a 5 hour fast, blood glucose was measured and animals were dosed PO with MK-2305 at 10 mg/kg (5 ml/kg) or vehicle (0.5% methylcellulose) immediately followed by 50 mg/kg [U-^13C] glucose (Sigma-Aldrich) IP at 5 ml/kg. Blood was collected via tail snip at time points from 60–150 min post treatment to measure blood glucose as well as endogenous (^12C-glucose) and exogenous (^13C-glucose) via GCMS. Following the last tail blood collection, rats were anesthetized with isoflurane and cardiac blood was collected into K2EDTA tubes (Becton, Dickinson and Co., Franklin Lakes, NJ).
The serially collected blood samples were analyzed for ^13C-glucose enrichment using GC-MS analysis. The % ^13C glucose enrichments were then combined with the total glucose readings to calculate the concentration of ^13C-glucose, and these values were modeled with a two-compartment model of whole body glucose metabolism to calculate the average EGP for the period from 0–150 minutes.
Terminal blood samples were analyzed for relative ^2H enrichment in plasma glucose using the monoacetone glucose method. Briefly, samples were extracted with 70% perchloric acid and centrifuged at 25,000 rcf for 10 min at 4°C. The supernatant was collected and the pH was adjusted to 6–8 using KOH. The samples were then lyophilized overnight. To convert plasma glucose to monoacetone glucose (MAG), acetone and concentrated sulfuric acid were added to the lyophilized samples and stirred for 4 hours at room temperature. Water was then added and the pH adjusted to 2.0 with 3M Na2CO3. Samples were stirred moderately for 18 hours at room temperature, the pH was adjusted to 7 with 3M Na2CO3, and the samples were completely dried by speed vacuum concentration. The resulting MAG samples were then extracted in hot ethyl acetate, dried overnight under a stream of N2 gas, purified using Discovery DSC-18 SPE columns (6 ml, 1 g bed weight), and freeze dried. Purified MAG samples were solubilized in 180 μl 90% acetonitrile for ^2H NMR analysis which was performed using the lock channel of a 950 MHz Bruker NMR spectrometer (David H Murdock Research Institute, Kannapolis, NC). Acquisition parameters were as follows: 90° pulse, D1 = 1 s, ^1H broadband decoupling, NS = 3600 averages, acquisition time ~ 1 hr. The ^2H NMR spectra of the MAG samples were then analyzed using in–house developed Matlab (The Mathworks Inc, Natick, MA) to model the NMR peaks with a Lorentzian line shape, and the results were used to calculate integrals for each of the seven NMR resonances in the MAG spectrum. Peaks 2, 5, and 6s were then used to calculate the relative sources of EGP (i.e. gluconeogenesis from TCA cycle substrates, gluconeogenesis from triose phosphates, and glycogenolysis) and these values were combined with the total EGP measurement to calculate absolute fluxes of glucose production.

[3] = tested on: GK rats; experiment: GK rat chronic efficacy, compound in feed for 20 days; format: in vivo; conditions: Day 7, ~6 hrs after food removal; 10mpk; chronic study; individual animals; 10 mg/kg
[4] = tested on: GK rats; experiment: as above; format: in vivo; conditions: for effect on body weight / effect on food intake: GK rats; for % HBA1c / Liver Triglycerides: following 20 days of treatment in the GK rat, individual animals; for Morning (fed) Blood Glucose: 30 mpk in feed
Procedure: At the start of the study, fed glucose was measured at 8 A.M., and animals were selected and sorted into treatment groups based on ambient glucose (n = 10/male GK group, n = 6/male WKY control group). […] Fed blood glucose, food intake, and body weights were determined on days 0, 1, 3, 7, and 14 of study at 8 A.M. On days 7 and 14, food was removed for 5 h and plasma glucose was measured. Percent inhibitions were calculated as the percent reduction of blood glucose from the average value for vehicle controls. On day 14, blood was collected from the tail vein (20 μl) after the morning glucose measurement and after 5 h fast from a subset of n = 3 rats per treatment group to determine the ambient and fasted exposure of the compounds in circulation. The blood was stored at 4°C in 0.1 M sodium monocitrate for subsequent analysis. Animals were then re-fed their respective diet treatments. On day 20 of treatment at 8 A.M., blood glucose was measured and then animals were euthanized via CO2 asphyxiation. Blood and liver tissue were sampled, processed, and stored at -80°C until analysis.
Plasma was analyzed for triglycerides, NEFA, and HbA1C using a P Modular Roche Clinical Chemistry analyzer. Liver triglycerides were extracted as described by Bligh and Dyer, and were measured using the Infinity triglyceride assay kit (Thermo Scientific, Rockford, IL). Plasma insulin levels were measured via EIA (Mesoscale Discovery ELISA Kit, Gaithersburg MD).

[5] = acute treatment, 10 mg/kg, individual animals

O=C1NC(=O)C(C2CCOc3cc(Oc4ccc(C(F)(F)F)cc4Cl)ccc32)S1 (stereo not shown) [MK-2305]
binding site on GPR40 [1]: binds to the same site as other GPR40 partial agonists such as AMG837 and TAK-875 | effect on binding of AgoPAM's [1]: augments the binding of AgoPAM’s such as AM1638 | Glucose Production, GNG Glycerol [2, 5]: 3.608 µmol/kg/min and 6.69 µmol/kg/min and 9.73 µmol/kg/min and 6.819 µmol/kg/min and 7.18 µmol/kg/min and 7.314 µmol/kg/min | Glucose Production, GNG TCA [2, 5]: 22.6827 µmol/kg/min and 24.6101 µmol/kg/min and 42.0826 µmol/kg/min and 20.0832 µmol/kg/min and 26.1824 µmol/kg/min and 20.2011 µmol/kg/min | Glucose Production, GNG Total [2, 5]: 26.2902 µmol/kg/min and 31.3005 µmol/kg/min and 51.8129 µmol/kg/min and 26.902 µmol/kg/min and 33.3626 µmol/kg/min and 27.5151 µmol/kg/min | Glucose Production, Glycogenolysis [2, 5]: 12.8051 µmol/kg/min and 15.6084 µmol/kg/min and 16.1238 µmol/kg/min and 13.6282 µmol/kg/min and 9.977 µmol/kg/min and 16.0296 µmol/kg/min | effect on EGP derived from glycogenolysis ([2]; acute, 10 mg/kg PO): did not acutely affect | EGP from gluconeogenic substrates entering as triose phosphates ([2]; acute, 10 mg/kg PO, mean ± SEM, vehicle 8.82 ± 0.81, p < 0.05): 6.90 ± 0.80 µmol/kg/min | EGP from gluconeogenic substrates entering at the TCA cycle ([2]; acute, 10 mg/kg PO, mean ± SEM, vehicle 43.2 ± 4.17, p < 0.01): 26.0 ± 3.36 µmol/kg/min | total EGP ([2]; acute, 10 mg/kg PO, mean ± SEM, vehicle 52.0 ± 4.82, p < 0.05): 32.9 ± 3.95 µmol/kg/min | Fasted blood glucose [3]: 134 mg/dl (2×) and 126 mg/dl and 92 mg/dl and 108 mg/dl and 125 mg/dl and 107 mg/dl (2×) and 150 mg/dl | effect on body weight ([4]; 10 mg/kg in feed): no significant effect | effect on food intake ([4]; 10 mg/kg in feed): no significant effect | effect on food intake ([4]; 30 mg/kg in feed, p < 0.05): reduction in food intake that persisted through day 14 | effect on body weight ([4]; 30 mg/kg in feed, relative to vehicle controls): did not correspond to changes in body weight | % HBA1c ([4]; 10 mpk): 4.3% and 4.6% and 4.2% and 4.4% and 4.5% | Liver Triglycerides ([4]; 10 mpk): 19.1 mg/g tissue and 21.7 mg/g tissue and 24.5 mg/g tissue and 22.1 mg/g tissue and 24.7 mg/g tissue and 26.9 mg/g tissue and 25.8 mg/g tissue and 22.8 mg/g tissue | Morning (fed) Blood Glucose ([4]; Day 0 (start of study), individual GK rats): 189 mg/dL and 176 mg/dL and 238 mg/dL and 199 mg/dL and 183 mg/dL and 212 mg/dL and 192 mg/dL and 274 mg/dL and 228 mg/dL | Morning (fed) Blood Glucose ([4]; Day 1, individual GK rats): 147 mg/dL and 165 mg/dL and 223 mg/dL and 161 mg/dL and 155 mg/dL and 192 mg/dL and 153 mg/dL and 302 mg/dL and 159 mg/dL | Morning (fed) Blood Glucose ([4]; Day 3, individual GK rats): 139 mg/dL and 153 mg/dL and 156 mg/dL and 150 mg/dL and 169 mg/dL and 149 mg/dL and 154 mg/dL and 218 mg/dL and 134 mg/dL | Morning (fed) Blood Glucose ([4]; Day 7, individual GK rats): 139 mg/dL and 153 mg/dL and 126 mg/dL and 142 mg/dL and 151 mg/dL and 181 mg/dL and 197 mg/dL and 140 mg/dL | Morning (fed) Blood Glucose ([4]; Day 14, individual GK rats): 141 mg/dL and 143 mg/dL and 156 mg/dL and 133 mg/dL and 132 mg/dL and 146 mg/dL and 147 mg/dL | Morning (fed) Blood Glucose ([4]; Day 20, individual GK rats): 128 mg/dL and 137 mg/dL and 159 mg/dL and 133 mg/dL and 139 mg/dL and 122 mg/dL and 126 mg/dL and 115 mg/dL and 142 mg/dL | % HBA1c ([4]; 30 mpk): 4.4% and 4.5% and 4.3% | Liver Triglycerides ([4]; 30 mpk): 16.7 mg/g tissue and 23.9 mg/g tissue and 28.2 mg/g tissue and 27.1 mg/g tissue and 24.5 mg/g tissue and 23 mg/g tissue and 24.3 mg/g tissue
